In US20250387426A1 (priority 2024, published 2025):

Key:
migraine headache = conditions: human, in vivo
tension headache = conditions: human, in vivo

For Oc1ccc2c(c1)[C@@]13CCCC[C@@]1(O)[C@@H](C2)N(CC1CCC1)CC3 [butorphanol], the “benefit as rescue medication” value (migraine headache) was “without benefit”.

NS(=O)(=O)Cc1noc2ccccc12 [zonisamide] was tested, and the “benefit as migraine prophylactic agent” value (migraine headache) was “without benefit”.

For CCCCc1nc(Cl)c(CO)n1Cc1ccc(-c2ccccc2-c2nn[nH]n2)cc1 [losartan], the “benefit as migraine prophylaxis” value (migraine headache) was “no benefit”.

NC(=O)N1c2ccccc2C=Cc2ccccc21 [carbamazepine] was tested, and the “benefit as migraine prophylactic agent” value (migraine headache) was “without benefit”.

Cc1cc2nc3c(=O)[nH]c(=O)nc-3n(C[C@H](O)[C@H](O)[C@H](O)CO)c2cc1C [riboflavin] was tested, and the “effect on headache frequency” value (migraine headache) was “did not affect the frequency of their headaches”.

CN(C)CCC=C1c2ccccc2CCc2ccccc21 [amitriptyline] was tested, and the “benefit as migraine prophylactic agent” value (migraine headache) was “without benefit”.

With C[C@]12C=CC(=O)C=C1CC[C@@H]1[C@@H]2C(=O)C[C@@]2(C)[C@H]1CC[C@]2(O)C(=O)CO [prednisone] the “benefit as migraine prophylactic agent” value (migraine headache) was “without benefit”.

In the case of CCN(CC)CCNC(=O)c1cc(Cl)c(N)cc1OC [metoclopramide], the “tolerability” value (migraine headache) is reported as “intolerant”.

Clc1ccc2nsnc2c1NC1=NCCN1 [tizanidine] was tested, and the “benefit as migraine prophylactic agent” value (migraine headache) was “without benefit” and the “benefit as migraine prophylaxis” value (migraine headache) was “partially helpful”.

For CC(C)C[C@H](CN)CC(=O)O [pregabalin], the “comorbid neuropathic facial pain” value (tension headache) was “treated effectively” and the “benefit as migraine prophylactic agent” value (migraine headache) was “without benefit”.

For COC1=C(OC)C(=O)C(C/C=C(\C)CC/C=C(\C)CC/C=C(\C)CC/C=C(\C)CC/C=C(\C)CC/C=C(\C)CC/C=C(\C)CC/C=C(\C)CC/C=C(\C)CCC=C(C)C)=C(C)C1=O [coenzyme Q10], the “benefit as migraine prophylactic agent” value (migraine headache) was “without benefit”, the “benefit as migraine prophylaxis” value (migraine headache) was “no benefit” and the “effect on headache frequency” value (migraine headache) was “did not affect the frequency of their headaches”.

For NCC1(CC(=O)O)CCCCC1 [gabapentin], the “benefit as migraine prophylactic agent” value (migraine headache) was “without benefit”, the “benefit as migraine prophylaxis” value (migraine headache) was “no benefit” and the “benefit from previous treatment” value (migraine headache) was “no benefit”.

For NCC(CC(=O)O)c1ccc(Cl)cc1 (centres unmarked) [baclofen], the “benefit as migraine prophylactic agent” value (migraine headache) was “without benefit”, the “benefit as migraine prophylaxis” value (migraine headache) was “no benefit” and the “benefit from previous treatment” value (migraine headache) was “no benefit”.

In the case of CCCC(CCC)C(=O)O [valproic acid], the “benefit as migraine prophylactic agent” value (migraine headache) is reported as “without benefit”.

With CC(C)NCC(O)COc1cccc2ccccc12 (centres unmarked) [propranolol] the “benefit as migraine prophylactic agent” value (migraine headache) was “without benefit”, the “benefit from previous treatment” value (migraine headache) was “no benefit” and the “tolerability” value (migraine headache) was “caused dizziness”.

With C[C@@H]1[C@H](c2ccccc2)C[C@H](NC(=O)c2cnc3c(c2)C[C@@]2(C3)C(=O)Nc3ncccc32)C(=O)N1CC(F)(F)F [Ubrelvy] the “benefit as rescue medication” value (migraine headache) was “not helpful”.

CN1CCC[C@@H]1Cc1c[nH]c2ccc(CCS(=O)(=O)c3ccccc3)cc12 [eletriptan] was tested, and the “benefit as rescue medication” value (migraine headache) was “consistently effective”.

For CN(C)CCc1c[nH]c2ccc(Cn3cncn3)cc12 [rizatriptan], the “adverse effect of rescue medication” value (migraine headache) was “severe elevation in their blood pressure”, the “benefit as rescue medication” value (migraine headache) was “no longer effective” and the “share of time the rescue medication worked” value (migraine headache) was “approximately 20 % of the time”.

O=C(O)Cc1ccccc1Nc1c(Cl)cccc1Cl [diclofenac] was tested, and the “benefit as rescue medication” value (migraine headache) was “without benefit”.

For CN(C)CCc1c[nH]c2ccc(C[C@H]3COC(=O)N3)cc12 [zolmitriptan nasal spray, zolmitriptan], the “benefit as rescue medication” value (migraine headache) was “without benefit”.

For CC(C)Cc1ccc(C(C)C(=O)O)cc1 (centres unmarked) [ibuprofen], the “headache relief” value (tension headache) was “may resolve with ibuprofen” and the “benefit from previous treatment” value (migraine headache) was “no benefit”.

For CC1(C)O[C@@H]2[C@@H](CO[C@@]3(COS(N)(=O)=O)OC(C)(C)O[C@@H]23)O1 [topiramate], the “benefit as migraine prophylactic agent” value (migraine headache) was “without benefit”, the “severe migraine headache frequency” value (migraine headache) was 5 to 7 days a week and the “tolerability” value (migraine headache) was “could not tolerate the side effects”.

CCCCN1CCCCC1C(=O)Nc1c(C)cccc1C (centres unmarked) [bupivacaine] was tested, and the “pain after local anesthetic injection along superior nuchal line” value (migraine headache) was “substantially improved for two days”.

B1: Emgality: prophylactic agent prescribed for chronic migraine (antibody, chains of the INN, looked up, V domains shown)
VH: QVQLVQSGAEVKKPGSSVKVSCKASGYTFGNYWMQWVRQAPGQGLEWMGAIYEGTGKTVYIQKFADRVTITADKSTSTAYMELSSLRSEDTAVYYCARLSDYVSGFGYWGQGTTVTVSS
VL: DIQMTQSPSSLSASVGDRVTITCRASKDISKYLNWYQQKPGKAPKLLIYYTSGYHSGVPSRFSGSGSGTDFTLTISSLQPEDFATYYCQQGDALPPTFGGGTKVEIK
B1 was tested, and the “frequency of headaches with throbbing, light and sound sensitivity” value (tension headache) was “decreased to around once or twice per week”, the “benefit as migraine prophylactic agent” value (migraine headache) was “without benefit” and the “benefit of subsequent treatment” value (migraine headache) was “reduced the pain somewhat, but had not reduced the frequency or duration”. For the same molecule, the migraine frequency (migraine headache) was 2 to 3 days/week and the “tolerability” value (migraine headache) was “caused unwanted side effects”.

B2: Ajovy: prophylactic agent tried for migraines (antibody, chains of the INN, looked up, V domains shown)
VH: EVQLVESGGGLVQPGGSLRLSCAASGFTFSNYWISWVRQAPGKGLEWVAEIRSESDASATHYAEAVKGRFTISRDNAKNSLYLQMNSLRAEDTAVYYCLAYFDYGLAIQNYWGQGTLVTVSS
VL: EIVLTQSPATLSLSPGERATLSCKASKRVTTYVSWYQQKPGQAPRLLIYGASNRYLGIPARFSGSGSGTDFTLTISSLEPEDFAVYYCSQSYNYPYTFGQGTKLEIK
B2 was tested, and the “benefit as migraine prophylactic agent” value (migraine headache) was “without benefit”.
